pIC50: −log10 of the molar value. Calls of active or inactive are those of the source. No stated cut-off is given here; in the data, active means IC50 below about 20 µM; inactive means the rest.
Tested on: Gli-responsive luciferase reporter cells, SUFU pathway antagonism
Experiment: blockers of Gli reporter signaling – cell-based, luciferase luminescence, uHTS hits, dose response (AID 602464)

SMILES	pIC50	IC50
CCCCOc1ncnc2c1[nH]c1ccc(F)cc12	5.31	
Cc1ccc(OCCN2CCN(c3ncnc4sc(C)c(C)c34)CC2)cc1	5.54	
Cc1nc2ccccc2n1Cc1ccc(Br)cc1	5.33	
COc1ccc(Nc2nc(N3CCOCC3)nc(N3CCOCC3)n2)c(OC)c1		> 20 µM (inactive)
c1ccc(Cn2c(-c3ccccc3)c[n+]3c2SCCC3)cc1	5.18	
O=C(Cc1ccc(Cl)cc1Cl)Nc1ccncc1	4.99	
CC(Sc1nc2ccccc2c(=O)n1C)C(=O)NC1CCCCC1C (stereo not drawn)	4.94	
CN1/C(=C\C=N\NC(=O)c2ccc(O)cc2)C(C)(C)c2ccccc21	5.36	
CN(Cc1ccc(OCC(O)CN2CCCCC2)cc1)Cc1ccnc2ccccc12 (stereo not drawn)	5.07	
COc1ccc(CN(C)C(=O)c2cccc(NC(=O)CC3SC(N4CCCCC4)=NC3=O)c2)c(OC)c1 (stereo not drawn)	4.89	
C[C@@H]1COC(=O)[C@H](NC(=O)OCC2c3ccccc3-c3ccccc32)C/C=C\C[C@@H](CC(=O)N[C@@H](CO)Cc2ccccc2)C(=O)N1	5.11	
CC1=CC(C)C2(COC(c3ccc[n+](C)c3)OC2)C(C)C1 (stereo not drawn)	4.75	
Cn1nc(CC(=O)NCc2ccc(C(F)(F)F)cc2)c2ccccc2c1=O	5.18	
CCn1c(C)nc2cc(-c3nnc(-c4c(-c5ccccc5)noc4C)o3)ccc21	5.13	
C=CCOc1nc2c(c(=O)n(C)c(=O)n2C)n1Cc1ccc(Cl)cc1	5.10	
COc1ccc(NS(=O)(=O)c2ccc(N3CCOCC3)c(N)c2)cc1	5.29	
Cc1cc(=O)[nH]c(SCC(=O)/C=C2\N(C)c3ccccc3C2(C)C)n1	5.29	
CCC(C(=O)NCCC(C)C)n1ccc2cc(S(=O)(=O)N3CCCCC3)ccc21 (stereo not drawn)	5.05	
Cc1sc2ncnc(NCc3cccs3)c2c1C	5.09	
Cc1ccc(NCC(=O)Nc2cccc(S(=O)(=O)N(C)C)c2)cc1S(=O)(=O)N1CCCCCC1	4.84	
CCOC(=O)C1CCCN(S(=O)(=O)c2ccc(S(=O)(=O)N(CC)CC)cc2)C1 (stereo not drawn)	5.48	
O=C(c1cc2sccc2n1Cc1ccc(F)cc1)N1CCN(c2nc3ccccc3s2)CC1	5.36	
Cc1cccc(CCN2C(N(C)C)=NC[C@@H]2CC(C)C)c1	4.99	
CCOc1ccc2[nH]c3c(N4CCN(C(=O)c5ccco5)CC4)ncnc3c2c1	5.15	
O=C(C[C@H]1C/C=C\C[C@@H](NC(=O)OCC2c3ccccc3-c3ccccc32)C(=O)O[C@@H](c2ccccc2)CNC1=O)N[C@H](CO)Cc1ccccc1	5.12	
CC[N+](C)(CC)CCC(c1ccccc1)C1CCCCC1 (stereo not drawn)	4.88	
C[C@@H]1COC(=O)[C@@H](NC(=O)OCC2c3ccccc3-c3ccccc32)C/C=C\C[C@@H](CC(=O)N(CCO)Cc2ccccc2)C(=O)N1		> 20 µM (inactive)

SMILES	pIC50	IC50
COc1ccc(C2=[N+](C)CCn3cccc32)c(OC)c1	4.99	
CCCN(CCC)CCNC(=O)c1cc2c(=O)n(C)c3ccccc3c2n1C		> 20 µM (inactive)
Cc1ccc2c(c1)c(C)cc[n+]2Cc1ccccc1	5.06	
CCOc1ccc(OCc2ccc(C(=O)NN=Cc3ccc[nH]3)cc2)cc1	5.61	
C=CCNC(=S)/N=c1/ccccn1Cc1ccccc1	4.92	
CCCc1nc(SCC(=O)Nc2nnc(CC)s2)c2c(=O)n(C)c(=O)n(C)c2n1	5.07	
Cc1csc2ncnc(NCCc3ccccn3)c12	5.15	
CCC(CC)CN1C(N(C)C)=NC[C@@H]1CC(C)C	5.08	
Cn1c(=O)c2c(nc(NCc3ccco3)n2Cc2ccc(Cl)cc2Cl)n(C)c1=O	6.19	
CC(C)(C)[C@H]1COC(=O)[C@H](NC(=O)OCC2c3ccccc3-c3ccccc32)C/C=C\C[C@@H](CC(=O)N(CCO)Cc2ccccc2)C(=O)N1	4.93	
CCc1c(C)nc2ncnn2c1N1CCN(S(=O)(=O)c2ccc(OC)cc2)CC1	5.18	
COc1nnc(-c2ccc(N3CCCCC3)c(N)c2)c2ccccc12	5.04	
Cc1nc2ccccc2c2oc(C(=O)N3CCN(C4CCCCC4)CC3)cc12	4.73	
C(#Cc1ccccc1)C[N+]1(CC#Cc2ccccc2)CCCC1	5.28	
CCOC(=O)CSc1c(-c2cccs2)[nH]c2ccccc12	5.43	
O=C(COC(=O)c1ccc2[nH]c3c(c2c1)CCCC3)Nc1ccccc1Cl		> 20 µM (inactive)
CCOC(CN=c1nc(N(C)C)ss1)OCC		> 20 µM (inactive)
Cc1ccc(S(=O)(=O)NCCC2=CCCCC2)cc1C(N)=O	5.06	
Cc1nc2ncccn2c1-c1csc(Nc2ccc(O)cc2)n1	5.36	
COc1cccc(CN(C)C(=O)c2cc(COc3ccc4ncccc4c3)on2)c1	5.27	
COc1ccc(-c2c(C#N)c(N)nc3c2CCc2ccccc2-3)cc1OC	5.17	
O=C(C[C@@H]1C/C=C\C[C@@H](NC(=O)OCC2c3ccccc3-c3ccccc32)C(=O)OC[C@@H](Cc2ccccc2)NC1=O)NCCO	5.00	
COc1ccc2c(c1)c(C)cc[n+]2Cc1ccccc1	5.41	
Cc1nc2cc(N3CCN(C)CC3)c(NC(=O)Cc3ccccc3)cc2c(=O)n1Cc1ccccc1	4.91	
CCOc1ccc(-c2nc(CSCC(=O)NC3CC3)c(C)o2)cc1	6.42	
Cc1cc(C)c[n+](C(C)C(=O)c2ccc(-c3ccccc3)cc2)c1 (stereo not drawn)	5.23	
